From patent US20120225062A1 (priority 2011, published 2012)

Legend:
Pim 1 = Pim 1 (Homo sapiens, UniProt P11309); test: Pim 1 AlphaScreen assay (high ATP)
Pim 2 = Pim 2 (Homo sapiens, UniProt Q9P1W9); test: Pim 2 AlphaScreen assay (high ATP)
[1] = system: KMS11 (human myeloma cell line); test: Cell Proliferation Assay (CellTiter-Glo, 3 days); format: cell-based; conditions: KMS-11, 72 h, KMS11-luc cells
Procedure, shortened: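 KMS11 myeloma cells, 2000 per well in IMDM with 10% FBS, exposed to compound for 3 days at 37° C. Viability read by CellTiter-Glo luminescence; EC50 derived.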

Pim 3 = Pim 3 (Homo sapiens, UniProt Q86V86); test: Pim 3 AlphaScreen assay (high ATP)
Experimental: The activity of Pim 1, Pim 2, & Pim 3 is measured using a homogeneous bead based system quantifying the amount of phosphorylated peptide substrate resulting from kinase-catalyzed phosphoryl transfer to a peptide substrate. Compounds to be tested are dissolved in 100% DMSO and directly distributed to a white 384-well plate at 0.25 μl per well. […] This is followed by the addition of 5 μl/well of Pim 1, Pim 2 or Pim 3 kinase in assay buffer (concentrations described below). Final assay concentrations (described below) are in 2.5% DMSO. The reactions are performed for ˜2 hours, then stopped by the addition of 10 μl of 0.75 μg/ml anti-phospho Ser/Thr antibody (Cell Signaling), 10 μg/ml Protein A AlphaScreen beads (Perkin Elmer), and 10 μg/ml streptavidin coated AlphaScreen beads in stop/detection buffer (50 mM EDTA, 95 mM Tris, pH=7.5, 0.01% Tween-20). The stopped reactions are incubated overnight in the dark. The phosphorylated peptide is detected via an oxygen anion initiated chemiluminescence/fluorescence cascade using the Envision plate reader (Perkin Elmer).

Pim 2, sequence (Q9P1W9 whole entry): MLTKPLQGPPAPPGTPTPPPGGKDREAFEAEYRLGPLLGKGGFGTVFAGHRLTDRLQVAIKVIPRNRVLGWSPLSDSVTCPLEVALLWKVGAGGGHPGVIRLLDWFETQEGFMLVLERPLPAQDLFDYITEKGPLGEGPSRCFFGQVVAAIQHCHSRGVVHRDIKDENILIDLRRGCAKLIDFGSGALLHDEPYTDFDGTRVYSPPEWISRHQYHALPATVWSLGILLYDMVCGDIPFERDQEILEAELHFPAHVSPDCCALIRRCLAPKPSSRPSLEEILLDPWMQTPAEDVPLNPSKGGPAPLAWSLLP
Pim 1, sequence (P11309 whole entry): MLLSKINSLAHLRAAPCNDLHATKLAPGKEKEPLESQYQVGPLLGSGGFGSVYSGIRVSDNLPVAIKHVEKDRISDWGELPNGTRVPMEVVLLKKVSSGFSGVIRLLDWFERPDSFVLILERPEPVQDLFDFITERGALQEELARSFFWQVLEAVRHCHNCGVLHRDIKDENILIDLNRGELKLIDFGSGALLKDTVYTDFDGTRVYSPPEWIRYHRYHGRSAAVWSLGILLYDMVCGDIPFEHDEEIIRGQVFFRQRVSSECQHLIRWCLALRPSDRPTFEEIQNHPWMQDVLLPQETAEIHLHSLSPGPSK

SMILES | IC50 (Pim 1) [nM] | IC50 (Pim 2) [nM] | EC50 [1] [nM] | IC50 (Pim 3) [nM]
C[C@@H]1C[C@H](N)C[C@H](c2ccncc2NC(=O)c2ccc(F)c(-c3c(F)cc(OCC4CCOCC4)cc3F)n2)C1 [Example 177, N-(4-((1R,3S,5S)-3-amino-5-methylcyclohexyl)pyridin-3-yl)-6-(2,6-difluoro-4-((tetrahydro-2H-pyran-4-yl)methoxy)phenyl)-5-fluoropicolinamide] | 0.02 | 1.33 | 381 | 0.78
C[C@H]1C[C@@H](c2ccncc2NC(=O)c2ccc(F)c(-c3c(F)cc(OCC4CCOCC4)cc3F)n2)C[C@@H](N)[C@@H]1O [Example 178, N-(4-((1R,3R,4R,5S)-3-amino-4-hydroxy-5-methylcyclohexyl)pyridin-3-yl)-6-(2,6-difluoro-4-((tetrahydro-2H-pyran-4-yl)methoxy)phenyl)-5-fluoropicolinamide] | 0.03 | 1.42 | 395 | 0.84
C[C@@H]1C[C@H](N)C[C@H](c2ccncc2NC(=O)c2ccc(F)c(-c3c(F)cc4c(c3F)OCC4)n2)C1 [Example 179, N-(4-((1R,3S,5S)-3-amino-5-methylcyclohexyl)pyridin-3-yl)-6-(5,7-difluoro-2,3-dihydrobenzofuran-6-yl)-5-fluoropicolinamide] | 0.01 | 0.51 | 77 | 0.3
C[C@H]1C[C@@H](c2ccncc2NC(=O)c2ccc(F)c(-c3c(F)cc4c(c3F)OCC4)n2)C[C@@H](N)[C@@H]1O [Example 180, N-(4-((1R,3R,4R,5S)-3-amino-4-hydroxy-5-methylcyclohexyl)pyridin-3-yl)-6-(5,7-difluoro-2,3-dihydrobenzofuran-6-yl)-5-fluoropicolinamide] | 0.02 | 0.92 | 145 | 0.58
C[C@@H]1C[C@H](N)C[C@H](c2ccncc2NC(=O)c2ccc(F)c(-c3c(F)cc(C(C)(C)C(=O)O)cc3F)n2)C1 [Example 181, 2-(4-(6-(4-((1R,3S,5S)-3-amino-5-methylcyclohexyl)pyridin-3-ylcarbamoyl)-3-fluoropyridin-2-yl)-3,5-difluorophenyl)-2-methylpropanoic acid] | 0.45 | 4.75 | > 10000 | 20.9
COCCCOc1cc(F)c(-c2nc(C(=O)Nc3cnccc3[C@H]3C[C@@H](N)[C@H](O)[C@@H](C)C3)ccc2F)c(F)c1 [Example 184, N-(4-((1R,3R,4R,5S)-3-amino-4-hydroxy-5-methylcyclohexyl)pyridin-3-yl)-6-(2,6-difluoro-4-(3-methoxypropoxy)phenyl)-5-fluoropicolinamide] | 0.03 | 3.54 | 161 | 0.93
C[C@@H]1C[C@H](N)C[C@H](c2ccncc2NC(=O)c2ccc(F)c(-c3c(F)cc(OCC4(C#N)CCOCC4)cc3F)n2)C1 [Example 185, N-(4-((1R,3S,5S)-3-amino-5-methylcyclohexyl)pyridin-3-yl)-6-(4-((4-cyanotetrahydro-2H-pyran-4-yl)methoxy)-2,6-difluorophenyl)-5-fluoropicolinamide] | 0.02 | 4.04 | 632 | 2.44
C[C@H]1C[C@@H](c2ccncc2NC(=O)c2ccc(F)c(-c3c(F)cc(OCC4(C#N)CCOCC4)cc3F)n2)C[C@@H](N)[C@@H]1O [Example 186, N-(4-((1R,3R,4R,5S)-3-amino-4-hydroxy-5-methylcyclohexyl)pyridin-3-yl)-6-(4-((4-cyanotetrahydro-2H-pyran-4-yl)methoxy)-2,6-difluorophenyl)-5-fluoropicolinamide] | 0.04 | 3 | 527 | 1.32
C[C@@H]1C[C@H](N)C[C@H](c2ccncc2NC(=O)c2cccc(-c3c(F)cc(OC4CCOCC4)cc3F)n2)C1 [Example 187, N-(4-((1R,3S,5S)-3-amino-5-methylcyclohexyl)pyridin-3-yl)-6-(2,6-difluoro-4-(tetrahydro-2H-pyran-4-yloxy)phenyl)picolinamide] | 0.03 | 2.47 | 210 | 1.28
